Laboratory results as given in article PMC7774954, “Interactomic affinity profiling by holdup assay: Acetylation and distal residues impact the PDZome-binding specificity of PTEN phosphatase” (PLoS ONE, 2020).
*1 amine or outer side, *2 acyl side, *3 side chain or, on linkers, in order; H or OH if unused. Where a SMILES comes first, the peptide text is derived from it. The star is where a group is joined. X1 = O=C(CCCC[C@@H]1SC[C@@H]2NC(=O)N[C@@H]21)NCCCOCCOCCOCCCN*; Suc = O=C(CCC(=O)[*:2])[*:1]

What was measured:
[1] = test system: ARHGAP21-1; assay: Holdup assay, ARHGAP21-1; format: binding, human
[2] = test system: GRIP1-1; assay: Holdup assay, GRIP1-1; format: binding, human
[3] = test system: IL16-1; assay: Holdup assay, IL16-1; format: binding, human
[4] = test system: APBA3-2; assay: Holdup assay, APBA3-2; format: binding, human
[5] = target: LRRC7-1 (Homo sapiens, UniProt Q96NW7); assay: Holdup assay, LRRC7-1; format: binding
[6] = test system: DLG3-1; assay: Holdup assay, DLG3-1; format: binding, human
[7] = target: T1, SNX27 PDZ 1 (Homo sapiens, UniProt Q96L92); assay: Holdup assay, SNX27-1; format: binding; details: for BI: PDZ domain SNX27-1
T1 construct: made in house; host or cells: E. coli
Description: (§1) The holdup assay was performed on a Tecan freedom Evo200 robot with 384-well plates in singlicate for the three 11-mer PTEN variants and the 13-mer PTEN peptide as described in [31, 32]. Briefly, prior to interaction assay, 2.5 μL of streptavidin resin was saturated in each well with 20 μL of biotinylated PBM peptides (42 μM) and then washed twice with an excess of free biotin, while the reference resin was incubated only with biotin. Right before the holdup experiment, the PDZ library was spiked with an internal standard of lysozyme. Then, the biotin- or PBM-saturated resin was incubated, each in a distinct well of a 384-well plate, with complete cell lysates diluted so that the concentration of the tag-PDZ present in the crude extract is adjusted at 4 μM. After a sufficient time to reach complex equilibrium (15 min.), a fast and mild filtration step is performed and the tag-PDZ concentrations were measured by capillary electrophoresis instrument (LabChip GXII, PerkinElmer, Massachusets, USA). Standard markers were used to convert migration time into molecular weight on the LabChip software and inappropriate molecular weight markers were corrected or excluded.
(§2) For filtered data, the BI was extracted with the following equation (Eq 1) that estimates the depleted fraction after superimposition of the sample and reference electropherograms: BI=Iref−Ilig/Iref (1) where Iref and Ilig are the intensities of the tag-PDZ peaks measured, for each PDZ domain/PBM peptide interaction pair, in the biotin reference and the PBM electropherograms, respectively.
(§3) BIs were transformed into dissociation constants (KD) using the following formula: KD=([PDZtot]−BI·[PDZtot])·([PBMtot]−BI·[PDZtot])/BI·[PDZtot] (2) where [PDZtot] and [PBMtot] correspond to the total concentrations of the PDZ domain (usually around 4 μM) and the PBM peptide used during the assay. Since the PBMtot concentration in the resin during the holdup assay parameter may differ from one peptide to another and remains unknown, it is impossible to directly convert BI values into KD constants. We systematically determined the KD constants for a subset of PDZ/PBM pairs by competitive FP. […] For each PBM, the average peptide concentration was calculated after outlier rejection based on the absolute distances from the median as compared to three times the standard deviation (3σ rule), with never more than 2 values rejected.

[8] = target: GRASP-1 (Homo sapiens, UniProt Q7Z6J2); assay: Holdup assay, GRASP-1; format: binding; details: for BI: GRASP-1
[9] = target: T2, DLG3-2 (Homo sapiens, UniProt Q92796); assay: Holdup assay, DLG3-2; format: binding
T2 sequence (Q92796 244-330): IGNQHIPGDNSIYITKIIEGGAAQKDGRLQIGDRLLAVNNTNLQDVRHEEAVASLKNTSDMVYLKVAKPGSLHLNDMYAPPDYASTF

[10] = target: T3, MAST2 PDZ 1 (Homo sapiens, UniProt Q6P0Q8); assay: Holdup assay, MAST2-1; format: binding
T3 construct: made in house; host or cells: E. coli
T3 sequence (Q6P0Q8 1104-1192 limits assumed): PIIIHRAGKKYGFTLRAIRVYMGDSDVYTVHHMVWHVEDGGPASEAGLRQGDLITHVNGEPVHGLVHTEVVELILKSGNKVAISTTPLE
Description: as §1, §2, §3

[11] = test system: FRMPD4-1; assay: Holdup assay, FRMPD4-1; format: binding, human
[12] = test system: IL16-4; assay: Holdup assay, IL16-4; format: binding, human
[13] = test system: HTRA2-1; assay: Holdup assay, HTRA2-1; format: binding, human
[14] = test system: INADL-1; assay: Holdup assay, INADL-1; format: binding, human
[15] = test system: GRIP1-5; assay: Holdup assay, GRIP1-5; format: binding, human
[16] = test system: LIN7B-1; assay: Holdup assay, LIN7B-1; format: binding, human
[17] = target: T4, SCRIB-3 (Homo sapiens, UniProt Q14160); assay: Holdup assay, SCRIB-3; format: binding; details: for BI: PDZ domain SCRIB-3
T4 construct: Representative holdup data recorded for three PDZ domains (MAST2-1, HTRA1-1, SCRIB-3); made in house; host or cells: E. coli
T4 sequence (Q14160 1004-1093 limits assumed): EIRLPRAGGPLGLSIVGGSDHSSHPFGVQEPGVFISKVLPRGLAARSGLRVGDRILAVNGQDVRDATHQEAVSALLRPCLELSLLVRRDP
Description: as §1, §2

[18] = target: MAGI2-6 (Homo sapiens, UniProt Q86UL8); assay: Holdup assay, MAGI2-6; format: binding
[19] = test system: MAGI1-6; assay: Holdup assay, MAGI1-6; format: binding, human

Sequence of MAGI2-6 (Q86UL8 1147-1229): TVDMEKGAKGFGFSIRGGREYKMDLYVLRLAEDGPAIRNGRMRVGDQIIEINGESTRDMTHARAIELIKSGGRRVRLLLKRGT
Sequence of LRRC7-1 (Q96NW7 with tags, fused parts or gaps): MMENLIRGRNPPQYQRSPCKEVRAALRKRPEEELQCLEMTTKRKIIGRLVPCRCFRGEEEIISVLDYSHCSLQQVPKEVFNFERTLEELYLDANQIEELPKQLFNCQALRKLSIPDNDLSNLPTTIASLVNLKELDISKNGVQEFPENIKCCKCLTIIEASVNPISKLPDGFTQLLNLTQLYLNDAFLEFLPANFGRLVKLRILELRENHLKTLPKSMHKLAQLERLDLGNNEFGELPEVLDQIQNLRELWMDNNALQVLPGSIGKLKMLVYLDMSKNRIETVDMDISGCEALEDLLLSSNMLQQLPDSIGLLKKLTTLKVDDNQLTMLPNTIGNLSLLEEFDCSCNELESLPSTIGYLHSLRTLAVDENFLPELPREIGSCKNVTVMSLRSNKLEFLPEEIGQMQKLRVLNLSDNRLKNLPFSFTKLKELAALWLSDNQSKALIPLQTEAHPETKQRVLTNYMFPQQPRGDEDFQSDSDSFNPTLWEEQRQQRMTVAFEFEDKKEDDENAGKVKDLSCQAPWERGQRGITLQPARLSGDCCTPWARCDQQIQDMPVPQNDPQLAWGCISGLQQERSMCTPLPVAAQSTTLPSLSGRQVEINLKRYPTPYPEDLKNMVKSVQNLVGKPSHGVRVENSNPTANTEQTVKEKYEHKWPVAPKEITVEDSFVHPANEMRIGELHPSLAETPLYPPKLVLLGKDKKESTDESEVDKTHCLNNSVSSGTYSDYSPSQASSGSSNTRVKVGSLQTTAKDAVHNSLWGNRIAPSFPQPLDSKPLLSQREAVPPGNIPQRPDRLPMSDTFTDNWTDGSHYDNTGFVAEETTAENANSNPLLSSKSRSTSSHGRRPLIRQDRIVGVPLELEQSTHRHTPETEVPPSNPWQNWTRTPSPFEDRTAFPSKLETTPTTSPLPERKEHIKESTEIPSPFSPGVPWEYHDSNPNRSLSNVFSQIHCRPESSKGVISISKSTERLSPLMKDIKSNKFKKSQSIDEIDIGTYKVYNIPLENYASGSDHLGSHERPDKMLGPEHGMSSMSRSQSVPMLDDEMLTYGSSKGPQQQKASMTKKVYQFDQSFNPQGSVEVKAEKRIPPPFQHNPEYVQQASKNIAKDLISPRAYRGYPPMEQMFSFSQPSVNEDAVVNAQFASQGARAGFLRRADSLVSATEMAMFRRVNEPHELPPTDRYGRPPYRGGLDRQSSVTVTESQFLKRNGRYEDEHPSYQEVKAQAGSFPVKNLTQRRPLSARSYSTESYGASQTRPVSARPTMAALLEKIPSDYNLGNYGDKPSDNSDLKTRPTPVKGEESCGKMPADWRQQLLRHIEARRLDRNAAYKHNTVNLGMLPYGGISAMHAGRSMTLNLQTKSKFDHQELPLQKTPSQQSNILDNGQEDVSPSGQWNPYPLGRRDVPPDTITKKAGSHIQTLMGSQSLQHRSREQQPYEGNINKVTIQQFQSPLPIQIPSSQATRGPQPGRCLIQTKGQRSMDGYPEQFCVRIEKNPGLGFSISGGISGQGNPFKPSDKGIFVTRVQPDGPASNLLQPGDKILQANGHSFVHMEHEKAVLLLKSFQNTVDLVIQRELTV
Sequence of GRASP-1 (Q7Z6J2 100-189): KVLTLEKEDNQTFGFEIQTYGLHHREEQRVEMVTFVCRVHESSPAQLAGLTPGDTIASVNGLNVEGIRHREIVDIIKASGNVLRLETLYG

Structure (SMILES) | BI [1] | BI [3] | BI [4] | BI [5] | BI [6] | Kd [7] [µM] | Kd [8] [µM] | BI [8] | BI [9] | Kd [10] [µM] | BI ([10]; MAST2-1) | BI [11] | BI [12] | BI [13] | BI [14] | BI [15] | BI [16] | BI [17] | BI [18] | BI [19] | also measured
CC[C@H](C)[C@H](NC(=O)[C@H](CCC(N)=O)NC(=O)[C@@H](NC(=O)[C@H](Cc1c[nH]cn1)NC(=O)[C@H](CCC(N)=O)NC(=O)[C@H](CC(=O)O)NC(=O)[C@H](CCC(=O)O)NC(=O)[C@H](CC(=O)O)NC(=O)CCC(=O)NCCCOCCOCCOCCCNC(=O)CCCC[C@@H]1SC[C@@H]2NC(=O)N[C@@H]21)[C@@H](C)O)C(=O)N[C@H](C(=O)N[C@@H](CCCNC(=N)N)C(=O)N[C@H](C(=O)O)C(C)C)[C@@H](C)O [PTEN_KR] ({X1-Suc}-DEDQHTQITRV-OH) | 0.074 | 0.06 | 0.086 | 0.14 | 0.066 | 8.32 | 16.8 | 0.575 | 0.277 | 6.66 | 0.767 | -0.051 | 0.002 | -0.042 | 0.058 | 0.003 | -0.078 | 0.022 | 0.358 | 0.051 | LogKD [1]: 3.655; BI [2]: -0.163; LogKD [2]: 3.655; LogKD [3]: 3.655; LogKD [4]: 3.655; LogKD [6]: 3.655; BI [7]: 0.67; Kd [9]: 62.4 µM; LogKD [11]: 3.655; LogKD [12]: 3.655; LogKD [13]: 3.655; LogKD [14]: 3.655; LogKD [15]: 3.655; LogKD [16]: 3.655; Kd [18]: 42.3 µM; LogKD [19]: 3.655
CC[C@H](C)[C@H](NC(=O)[C@H](CCC(N)=O)NC(=O)[C@@H](NC(=O)[C@H](Cc1c[nH]cn1)NC(=O)[C@H](CCC(N)=O)NC(=O)[C@H](CC(=O)O)NC(=O)[C@H](CCC(=O)O)NC(=O)[C@H](CC(=O)O)NC(=O)[C@H](Cc1ccccc1)NC(=O)[C@@H]1CCCN1C(=O)CCC(=O)NCCCOCCOCCOCCCNC(=O)CCCC[C@@H]1SC[C@@H]2NC(=O)N[C@@H]21)[C@@H](C)O)C(=O)N[C@H](C(=O)N[C@@H](CCCCN)C(=O)N[C@H](C(=O)O)C(C)C)[C@@H](C)O [PTEN_13] ({X1-Suc}-PFDEDQHTQITKV-OH) | 0.028 | 0.018 | 0.046 | 0.042 | -0.03 | 5.58 | 12.4 | 0.544 | 0.089 | 1.28 | 0.88 | -0.07 | 0.014 | -0.097 | 0.086 | -0.033 | -0.079 | -0.068 | 0.236 | 0.072 | BI [2]: -0.079; LogKD [5]: 3.826; BI [7]: 0.717; LogKD [9]: 3.826; Kd [18]: 52 µM
CC[C@H](C)[C@H](NC(=O)[C@H](CCC(N)=O)NC(=O)[C@@H](NC(=O)[C@H](Cc1c[nH]cn1)NC(=O)[C@H](CCC(N)=O)NC(=O)[C@H](CC(=O)O)NC(=O)[C@H](CCC(=O)O)NC(=O)[C@H](CC(=O)O)NC(=O)CCC(=O)NCCCOCCOCCOCCCNC(=O)CCCC[C@@H]1SC[C@@H]2NC(=O)N[C@@H]21)[C@@H](C)O)C(=O)N[C@H](C(=O)N[C@@H](CCCCNC(C)=O)C(=O)N[C@H](C(=O)O)C(C)C)[C@@H](C)O [PTEN_Ac] | 0.012 | 0.039 | 0.024 | -0.028 | 0.013 | 4.03 | 8.02 | 0.757 | 0.445 | 4.07 | 0.858 | -0.076 | 0.014 | -0.074 | 0.004 | -0.054 | -0.004 | -0.053 | 0.469 | 0.096 | LogKD [1]: 3.605; LogKD [3]: 3.605; LogKD [4]: 3.605; LogKD [5]: 3.605; LogKD [6]: 3.605; BI [7]: 0.859; Kd [9]: 32.7 µM; LogKD [11]: 3.605; LogKD [12]: 3.605; LogKD [13]: 3.605; LogKD [14]: 3.605; LogKD [15]: 3.605; LogKD [16]: 3.605; Kd [18]: 29.6 µM; LogKD [19]: 3.605
CC[C@H](C)[C@H](NC(=O)[C@H](CCC(N)=O)NC(=O)[C@@H](NC(=O)[C@H](Cc1c[nH]cn1)NC(=O)[C@H](CCC(N)=O)NC(=O)[C@H](CC(=O)O)NC(=O)[C@H](CCC(=O)O)NC(=O)[C@H](CC(=O)O)NC(=O)CCC(=O)NCCCOCCOCCOCCCNC(=O)CCCC[C@@H]1SC[C@@H]2NC(=O)N[C@@H]21)[C@@H](C)O)C(=O)N[C@H](C(=O)N[C@@H](CCCCN)C(=O)N[C@H](C(=O)O)C(C)C)[C@@H](C)O [PTEN_11] | -0.072 | -0.017 | 0.086 | 0.078 | 0 | 13.8 | 33.1 | 0.492 | 0.13 | 12.7 | 0.711 | -0.004 | -0.028 | 0.07 | 0.022 | 0.021 | -0.046 | 0.058 | 0.176 | -0.04 | LogKD [1]: 3.519; BI [2]: -0.021; LogKD [2]: 3.519; LogKD [3]: 3.519; LogKD [4]: 3.519; LogKD [5]: 3.519; LogKD [6]: 3.519; BI (binding intensity) ([10]; MAST2-1, holdup, singlicate, 0.00 no binding to 1.00 strong binding): 0.71; LogKD [11]: 3.519; LogKD [12]: 3.519; LogKD [13]: 3.519; LogKD [14]: 3.519; LogKD [15]: 3.519; LogKD [16]: 3.519; BI (binding intensity) ([17]; SCRIB-3, holdup, singlicate): 0.02; LogKD [19]: 3.519
